Laboratory results: ChEMBL document CHEMBL4421717, “Antagonists and agonists of bitter taste receptors and uses thereof” (2012)
Activity calls are given as the source filed them. The rule behind the calls is not given here.

Assays:
Format in all cases: functional, cell-based
[1] = target: T1, Taste receptor type 2 member 9 (Homo sapiens) (UniProt Q9NYW1); test: Activity at recombinant human N-terminal rat ST3 receptor-fused TAS2R9 expressed in HEK293T cells co-expressing Galpha16gust44 assessed as effect on ofloxacin-induced intracellular calcium level at 100 uM by FLIPR assay
T1 sequence (whole entry): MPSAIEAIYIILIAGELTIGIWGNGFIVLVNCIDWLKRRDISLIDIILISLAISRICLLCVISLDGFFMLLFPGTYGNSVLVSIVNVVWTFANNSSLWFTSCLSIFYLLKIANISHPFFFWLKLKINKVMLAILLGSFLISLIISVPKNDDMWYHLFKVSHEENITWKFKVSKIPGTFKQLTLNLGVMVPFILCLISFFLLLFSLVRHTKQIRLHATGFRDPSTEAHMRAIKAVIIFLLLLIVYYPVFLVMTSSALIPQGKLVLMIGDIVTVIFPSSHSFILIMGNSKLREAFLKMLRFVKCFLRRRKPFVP

[2] = target: T2, Taste receptor type 2 member 30 (Homo sapiens) (UniProt P59541); test: Antagonist activity at recombinant human N-terminal rat ST3 receptor-fused TAS2R47 expressed in HEK293T cells co-expressing Galpha16gust44 assessed as inhibition of brucine-induced intracellular calcium level at 100 uM by FLIPR assay
T2 sequence (whole entry): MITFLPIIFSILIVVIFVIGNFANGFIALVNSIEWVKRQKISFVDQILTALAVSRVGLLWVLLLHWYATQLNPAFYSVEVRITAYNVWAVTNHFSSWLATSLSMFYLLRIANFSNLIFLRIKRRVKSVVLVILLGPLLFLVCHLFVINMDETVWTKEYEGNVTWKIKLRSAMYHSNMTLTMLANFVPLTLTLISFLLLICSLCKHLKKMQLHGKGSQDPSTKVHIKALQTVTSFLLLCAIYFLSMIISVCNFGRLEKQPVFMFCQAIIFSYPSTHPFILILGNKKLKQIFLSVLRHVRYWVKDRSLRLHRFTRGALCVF

[3] = target: T3, Taste receptor type 2 member 8 (Homo sapiens) (UniProt Q9NYW2); test: Activity at recombinant human N-terminal rat ST3 receptor-fused TAS2R8 expressed in HEK293T cells co-expressing Galpha16gust44 assessed as effect on chloramphenicol-induced intracellular calcium level at 100 uM by FLIPR assay
T3 sequence (whole entry): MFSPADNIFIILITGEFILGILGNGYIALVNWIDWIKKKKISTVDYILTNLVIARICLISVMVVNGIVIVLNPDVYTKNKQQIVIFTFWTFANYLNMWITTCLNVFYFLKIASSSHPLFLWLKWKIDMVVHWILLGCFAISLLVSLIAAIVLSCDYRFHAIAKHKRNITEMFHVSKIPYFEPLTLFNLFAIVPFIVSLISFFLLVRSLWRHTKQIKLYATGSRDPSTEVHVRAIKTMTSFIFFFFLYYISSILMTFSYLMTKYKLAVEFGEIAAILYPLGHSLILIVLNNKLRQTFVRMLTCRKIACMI

[4] = target: T4, Taste receptor type 2 member 13 (Homo sapiens) (UniProt Q9NYV9); test: Activity at recombinant human N-terminal rat ST3 receptor-fused TAS2R13 expressed in HEK293T cells co-expressing Galpha16gust44 assessed as effect on denatonium benzoate-induced intracellular calcium level at 100 uM by FLIPR assay
T4 sequence (whole entry): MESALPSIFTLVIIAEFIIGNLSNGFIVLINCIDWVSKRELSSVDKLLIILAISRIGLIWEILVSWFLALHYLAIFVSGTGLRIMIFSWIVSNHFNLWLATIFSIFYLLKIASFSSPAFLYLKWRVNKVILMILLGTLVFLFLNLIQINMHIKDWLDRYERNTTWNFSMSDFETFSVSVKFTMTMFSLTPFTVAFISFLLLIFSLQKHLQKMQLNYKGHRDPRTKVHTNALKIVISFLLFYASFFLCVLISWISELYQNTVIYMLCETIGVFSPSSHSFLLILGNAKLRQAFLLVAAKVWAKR

[5] = target: T5, Taste receptor type 2 member 39 (Homo sapiens) (UniProt P59534); test: Activity at recombinant human N-terminal rat ST3 receptor-fused TAS2R39 expressed in HEK293T cells co-expressing Galpha16gust44 assessed as effect on epigallocatechin gallate-induced intracellular calcium level at 100 uM by FLIPR assay
T5 sequence (whole entry): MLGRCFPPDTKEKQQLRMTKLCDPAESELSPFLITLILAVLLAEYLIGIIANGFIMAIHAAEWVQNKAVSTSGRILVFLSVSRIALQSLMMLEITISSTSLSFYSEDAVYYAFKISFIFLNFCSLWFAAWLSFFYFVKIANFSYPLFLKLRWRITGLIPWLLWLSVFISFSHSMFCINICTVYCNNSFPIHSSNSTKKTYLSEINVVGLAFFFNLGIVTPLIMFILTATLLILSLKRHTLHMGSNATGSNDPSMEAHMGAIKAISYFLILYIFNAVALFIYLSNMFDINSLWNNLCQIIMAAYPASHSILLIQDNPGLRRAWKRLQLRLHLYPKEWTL

[6] = target: Taste receptor type 2 member 40 (Homo sapiens) (UniProt P59535); test: Antagonist activity at recombinant human N-terminal rat ST3 receptor-fused TAS2R40 expressed in HEK293T cells co-expressing Galpha16gust44 assessed as inhibition of cohumulone-induced intracellular calcium level at 100 uM by FLIPR assay
[7] = target: T6, Taste receptor type 2 member 20 (Homo sapiens) (UniProt P59543); test: Activity at recombinant human N-terminal rat ST3 receptor-fused TAS2R49 expressed in HEK293T cells co-expressing Galpha16gust44 assessed as effect on cromolyn-induced intracellular calcium level at 100 uM by FLIPR assay
T6 sequence (whole entry): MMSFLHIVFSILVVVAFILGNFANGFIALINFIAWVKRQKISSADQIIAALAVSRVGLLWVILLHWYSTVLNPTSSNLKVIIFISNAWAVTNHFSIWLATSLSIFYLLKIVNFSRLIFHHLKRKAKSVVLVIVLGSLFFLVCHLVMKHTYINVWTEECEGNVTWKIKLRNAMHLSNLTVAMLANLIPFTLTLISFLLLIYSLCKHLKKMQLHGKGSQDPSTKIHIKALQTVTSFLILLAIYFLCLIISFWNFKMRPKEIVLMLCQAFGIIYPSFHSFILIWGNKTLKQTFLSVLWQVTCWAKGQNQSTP

Chain of Taste receptor type 2 member 40 (Homo sapiens) (P59535 whole entry, the tested form may be a part): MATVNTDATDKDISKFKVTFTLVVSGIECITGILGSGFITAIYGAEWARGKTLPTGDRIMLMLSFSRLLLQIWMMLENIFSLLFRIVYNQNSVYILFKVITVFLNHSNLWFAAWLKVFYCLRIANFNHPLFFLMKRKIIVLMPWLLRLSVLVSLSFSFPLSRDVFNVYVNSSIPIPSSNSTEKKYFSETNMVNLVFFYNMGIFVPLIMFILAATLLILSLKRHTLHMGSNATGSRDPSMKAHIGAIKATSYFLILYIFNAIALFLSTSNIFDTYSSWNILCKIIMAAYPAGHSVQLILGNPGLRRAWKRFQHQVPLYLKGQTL

| SMILES | Activity [1] | inhibition [2] | Activity [3] | Activity [4] | Activity [5] | inhibition [6] | Activity [7] |
| --- | --- | --- | --- | --- | --- | --- | --- |
| C/C1=C\C[C@H](O)[C@@H](C)C[C@H]2OC(=O)[C@@H](C)C2CC1 (some centres undefined) | inactive | 100% | inactive | inactive | inactive | Active | inactive |
| C/C1=C\C[C@H](O)/C(C)=C/[C@H]2OC(=O)[C@@H](C)C2CC1 (some centres undefined) | inactive | Active | inactive | inactive | inactive | Active | inactive |
